Where a SMILES comes first, the peptide text is derived from it. The star is where a group is joined. X2 = NS(=O)(=O)c1ccc(CCNC(=O)Cn2cc(COC(=O)*)nn2)cc1; X1 = NS(=O)(=O)c1ccc(CO/N=C/C(=O)*)cc1
Biological target: Carbonic anhydrase 9 (Homo sapiens, UniProt Q16790)
Assay: Inhibition of human carbonic anhydrase 9 assessed as Ki by stopped-flow carbon dioxide hydration assay

SMILES | Ki [nM]
C#Cc1ccc(S(N)(=O)=O)cc1 | 150
NC(=O)[C@H](CO)NC(=O)/C=N/OCc1ccc(S(N)(=O)=O)cc1 | 1800
CC(C)C[C@H](NC(=O)[C@H](CO)NC(=O)/C=N/OCc1ccc(S(N)(=O)=O)cc1)C(N)=O | 2500
NC(=O)[C@H](Cc1ccc(O)cc1)NC(=O)[C@H](Cc1ccc(O)cc1)NC(=O)[C@H](Cc1ccccc1)NC(=O)[C@H](Cc1c[nH]c2ccccc12)NC(=O)[C@H](Cc1ccccc1)NC(=O)[C@H](Cc1ccccc1)NC(=O)[C@@H](N)CCCCNC(=O)OCc1cn(CC(=O)NCCc2ccc(S(N)(=O)=O)cc2)nn1 (H-K(X2)FFWFYY-NH2) | 104
CC(C)C[C@H](NC(=O)[C@H](CCC(N)=O)NC(=O)[C@H](Cc1ccc(O)cc1)NC(=O)[C@H](Cc1ccccc1)NC(=O)[C@@H](N)CCCCNC(=O)OCc1cn(CC(=O)NCCc2ccc(S(N)(=O)=O)cc2)nn1)C(=O)N[C@@H](Cc1ccc(O)cc1)C(=O)N[C@@H](Cc1ccccc1)C(N)=O (H-K(X2)FYQLYF-NH2) | 69
C[C@H](NC(=O)[C@H](Cc1cnc[nH]1)NC(=O)[C@H](C)NC(=O)[C@H](CCCCN)NC(=O)[C@H](Cc1ccc(O)cc1)NC(=O)[C@@H]1CCCN1C(=O)[C@H](Cc1cnc[nH]1)NC(=O)/C=N/OCc1ccc(S(N)(=O)=O)cc1)C(=O)N[C@@H](Cc1cnc[nH]1)C(N)=O (X1-HPYKAHAH-NH2) | 358
CC(C)C[C@H](NC(=O)[C@H](CO)NC(=O)/C=N/OCc1ccc(S(N)(=O)=O)cc1)C(=O)N1CCC[C@H]1C(=O)N[C@@H](Cc1ccccc1)C(N)=O (X1-SLPF-NH2) | 936

Next, values leading:

Ki [nM] | SMILES
2800 | CC(C)C[C@H](NC(=O)[C@H](CO)NC(=O)/C=N/OCc1ccc(S(N)(=O)=O)cc1)C(=O)N1CCC[C@H]1C(N)=O
1200 | [N-]=[N+]=NCC(=O)NCCc1ccc(S(N)(=O)=O)cc1
11 | CC(C)C[C@@H](C(N)=O)n1cc(-c2ccc(S(N)(=O)=O)cc2)nn1
844 | NOCc1ccc(S(N)(=O)=O)cc1
1370 | CC(C)C[C@H](NC(=O)[C@H](CO)NC(=O)/C=N/OCc1ccc(S(N)(=O)=O)cc1)C(=O)N1CCC[C@H]1C(=O)N[C@@H](Cc1ccccc1)C(=O)N[C@H](C(=O)N[C@H](C(=O)N[C@@H](Cc1ccc(O)cc1)C(=O)N[C@@H](CC(N)=O)C(N)=O)C(C)C)[C@@H](C)O (X1-SLPFTVYN-NH2)
